PubChem BioAssay (NCI)
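Interpolation was linear, between the two tested concentrations surrounding the appropriate level; five concentrations were tested over 48 hours in 96-well plates. The concentration for 50% growth inhibition is given as GI50. The concentration for full growth arrest is given as TGI.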

What was measured:
Test in all cases: DTP human tumour cell line panel, 48 h
A549 NSCLC = tested on: A549 NSCLC
TK-10 renal = tested on: TK-10 renal
SF-295 CNS = tested on: SF-295 CNS
BT-549 breast = tested on: BT-549 breast
HL-60(TB) leukemia = tested on: HL-60(TB) leukemia
CAKI-1 renal = tested on: CAKI-1 renal
U251 CNS = tested on: U251 CNS
UACC-62 melanoma = tested on: UACC-62 melanoma
SF-268 CNS = tested on: SF-268 CNS
SNB-75 CNS = tested on: SNB-75 CNS

Structure (SMILES) | TGI (A549 NSCLC) [µM] | TGI (TK-10 renal) [µM] | TGI (SF-295 CNS) [µM] | TGI (BT-549 breast) [µM] | TGI (HL-60(TB) leukemia) [µM] | TGI (CAKI-1 renal) [µM] | TGI (U251 CNS) [µM] | TGI (UACC-62 melanoma) [µM] | TGI (SF-268 CNS) [µM] | TGI (SNB-75 CNS) [µM] | GI50 (A549 NSCLC) [µM] | GI50 (TK-10 renal) [µM] | GI50 (SF-295 CNS) [µM] | GI50 (BT-549 breast) [µM] | GI50 (HL-60(TB) leukemia) [µM] | GI50 (SNB-75 CNS) [µM] | GI50 (CAKI-1 renal) [µM] | GI50 (U251 CNS) [µM] | GI50 (UACC-62 melanoma) [µM] | GI50 (SF-268 CNS) [µM]
CO/C=C(/C(=O)OC)c1ccccc1[C@@H]1CC1c1cccc(F)c1 (stereo partly specified) | 78.5 | > 100 | > 100 | 61.4 | 57.9 | 70.4 | > 100 | 50.2 | > 100 | – | – | – | – | – | – | – | – | – | – | –
Cc1nc2c(n1C)C(=O)c1nc(CBr)[nH]c(=O)c1C2=O | > 100 | > 100 | 5.27 | – | > 100 | – | > 100 | > 100 | > 100 | – | – | – | – | – | – | – | – | – | – | –
Cc1cccc2cc3c(ccc4ccccc43)c[n+]12 | > 100 | > 100 | 41.5 | 54.1 | > 100 | – | 40.6 | 63.1 | 14.2 | 21.8 | – | – | – | – | – | – | – | – | – | –
N#Cc1c(NC(=S)Nc2ccc(Cl)cc2)sc2c1CCCC2 | – | > 100 | > 100 | > 100 | > 100 | > 100 | > 100 | > 100 | > 100 | > 100 | – | – | – | – | – | – | – | – | – | –
COc1ccc2c(c1)CCN=C2Cc1cc(OC)c(OC)cc1CCCl | > 100 | > 100 | > 100 | > 100 | – | > 100 | > 100 | > 100 | > 100 | > 100 | – | – | – | – | – | – | – | – | – | –
CC(=O)Oc1c(C)c2c(O)c3c1C1=C(OCOC1=C(C)C3=O)/C(C)=C\C(C)(O)C(O)C(C)C(O)C1C(=O)OC(C(C)C1O)C(C)(O)/C=C/C=C(C)C(=O)N2 (stereo unspecified) | > 100 | – | > 100 | > 100 | 7.3 | 64.5 | > 100 | > 100 | > 100 | > 100 | – | – | – | – | – | – | – | – | – | –
CN(C)c1nc(N(C)C)nc(N(C)CN(C)c2ccc(Cl)cc2)n1 | > 100 | > 100 | > 100 | – | > 100 | – | > 100 | > 100 | > 100 | > 100 | – | – | – | – | – | – | – | – | – | –
O=C(C[C@H](NC(=O)OCc1ccccc1)C(=O)NC1Cc2ccccc2OC1=O)OCc1ccccc1 (stereo partly specified) | – | – | – | > 100 | – | > 100 | > 100 | – | – | > 100 | – | – | – | – | – | – | – | – | – | –
CCOC(=O)C[C@@H]1C2(C=C[C@@]13CO3)OCC(C)(C)CO2 | > 100 | > 100 | > 100 | > 100 | > 100 | > 100 | > 100 | > 100 | > 100 | > 100 | – | – | – | – | – | – | – | – | – | –
CN(c1cc2ncc(=O)[nH]c2cc1NC(N)=NCc1ccc(Cl)cc1)C1CCCCC1 | 18.8 | 15.2 | 14.9 | 14.6 | 12.7 | 14.5 | 13.4 | 14 | 14.7 | 10.1 | 9.11 | 7.44 | 7.42 | 7.4 | 5.36 | 2.87 | 7.47 | 5.96 | 6.8 | 6.89
CC(C)(C)OC(=O)NCC(=O)NC1c2ccsc2/C(=N/O)[C@H]1O (stereo partly specified) | > 100 | > 100 | > 100 | > 100 | > 100 | > 100 | > 100 | > 100 | – | – | – | – | – | – | – | – | – | – | – | –
CCN(CC)CCCC(C)Nc1ccnc2cc3ccccc3cc12 (stereo unspecified) | > 100 | 78.6 | 24.6 | 29.2 | 75.9 | 42.2 | 42.1 | 49.1 | 22.1 | 20.1 | – | – | – | – | – | – | – | – | – | –
CCN1C=C/C(=C\C=C/c2cc[n+](CC)c3ccccc23)c2ccccc21 | 21.2 | 28.1 | 12.5 | 51.2 | 15.1 | – | 13 | 23.8 | 19.6 | 7.57 | – | – | – | – | – | – | – | – | – | –
CC(C)CCC[C@@H](C)[C@H]1CC[C@H]2[C@@H]3CC[C@H]4C[C@H](N)CC[C@]4(C)[C@H]3CC[C@]12C | 48.1 | 37.2 | 45.5 | 67.6 | 68.6 | 59 | 43.8 | 43.1 | > 100 | 57.1 | – | – | – | – | – | – | – | – | – | –
CCCCCCCCCCCCCCCc1ccc(OCC(O)CO)cc1 (stereo unspecified) | 50.1 | > 100 | > 100 | – | 85 | > 100 | 55.9 | 48 | 82.4 | 72 | – | – | – | – | – | – | – | – | – | –
COc1ccc(C2CC(c3cccc(Nc4ccncc4)c3)=NN2c2ccc(Cl)cc2)cc1 (stereo unspecified) | 3.65 | 3.5 | 3.3 | 4 | 4.06 | 2.64 | – | 3.22 | 3.43 | 3.01 | 1.87 | 1.82 | 1.85 | 1.92 | 1.91 | 1.41 | 1.32 | – | 1.73 | 1.72
O=c1cc(-c2ccc(O)cc2)n(C2CC2)c2ccccc12 | 18.5 | – | 11.9 | – | 81.6 | 20.8 | 21.6 | 14.8 | 24.5 | – | – | – | – | – | – | – | – | – | – | –
c1ccc(C2CC(c3cccc(Nc4ccncc4)c3)=NN2c2ccccc2)cc1 (stereo unspecified) | – | 3.6 | 3.13 | 3.87 | 3.73 | 2.74 | 3.94 | 3.04 | 3.65 | 2.88 | – | 1.86 | 1.72 | 1.88 | 1.65 | 1.32 | 1.39 | 1.87 | 1.67 | 1.79
O=Cc1cc([N+](=O)[O-])no1 | – | > 100 | > 100 | > 100 | > 100 | > 100 | > 100 | 46.3 | – | > 100 | – | – | – | – | – | – | – | – | – | –
